Patent US5912232A, “Anti-inflammatory polypeptide antagonists of human I1-8” (Board of Regents of the University of Nebraska, priority 1996, dated 1999)
Where no end group is shown, it is not given here.

Experiments:
neutrophils (PMNs) = assay: IL-8 induced Ca release in Fluo-3 loaded neutrophils, flow cytometry; format: cell-based, human; details: PMNs pre-incubated with analog at 10^-6 M; IL-8 10^-6 M; FIG. 6
Experimental: Polymorphonuclear leukocytes (≥95% neutrophils, PMNs) were isolated from heparinized (10 μ/ml) blood collected from healthy volunteers. Erythrocytes were removed by 6% dextran sedimentation for 30 minutes at room temperature, and then the supernatant was subjected to Ficoll (Ficoll-Papque, Pharmacia LKB, Uppsala, Sweden) density gradient centrifugation. PMNs were obtained from the pellet. Contaminated erythrocytes were eliminated by one cycle of hypotonic lysis. After an additional washing step the cells were counted and adjusted to a final concentration of 5×10^6 /ml in RPMI 1640 (Gibco, Grand Island, N.Y.).
The loading procedure with Fluo-3 (Molecular Probes, Eugene, Oreg.) was carried out with PMNs suspended at a density of 5×10^6 /ml in fresh RPMI 1640 containing 2.0 μM Fluo-3 AM (prediluted in dimethyl sulfoxide; Sigma Chemicals) in polypropylene tubes (Falcon 2063, Becton Dickinson). We incubated the PMNs for 25 minutes at 37 degrees C in a 5% CO2 incubator. […]
Before addition of the stimuli the fluorescence channel of the FACScan Plus (Becton Dickinson) was adjusted to find the basal fluorescence level of loaded but unstimulated PMNs. The samples were excited by an argon laser at 488 nm and emission was measured at 525 nm (green fluorescence, channel FL1). […] The fluorescence of Fluo-3-loaded cells was measured in arbitrary fluorescence units of mean channel fluorescence (channel FL1). […]

[1] = test system: arachidonic acid induced ear inflammation; assay: arachidonic acid induced ear inflammation in mice (ear thickness/edema); format: in vivo, C57BL/6 female mice; details: ip 1 hour prior to arachidonic acid; ear thickness 1 hour post challenge; FIGS. 1 and 2
Experimental: A stock solution of 5 mgml of example 1 was prepared in D-PBS. The Analog 1 consists of 88.1% active peptide and the calculations were adjusted to compensate for the activity of the Analog 1. Serial dilutions were then made resulting in solutions of appropriate doses of Analog 1 in 0.2 ml. The animals were injected ip with 0.2 ml of the appropriate solution 1 hour prior to arachidonic acid application. The study consisted of various dosage groups as well as excipient groups. The animals used for the study were C57BL/6 female mice, which were obtained from Jackson Laboratories (age 8 weeks and weight 15-18 g). The mice were housed in conventional cages, fed pelleted food and given water ad libitum. The arachidonic acid (Sigma Lot #42H7817) was dissolved in methyl alcohol resulting in a final concentration of 2 mg/20 μl. […] One hour post challenge, the test and control ears were measured for thickness using a Mitutoyo No. 7300 gauge caliper. The thickness was recorded in units of 0.001 inches. […] The effect of Analog 1, which is on IL-8 low molecular weight peptide analog residue 6-19 on arachidonic acid induced ear inflammation was evaluated in vivo, according to the methods described in Example II. In this model, the application of arachidonic acid to the pinna of mice induces an immediate PMN-associated erythema and edema which may be measured by change in thickness. […]

IL-8 = assay: activity of IL-8 analog compared to analog 1 (test not specified); design: species or system human; details: C-terminally truncated (residues 6 to 16)
Experimental: The biological activity of an analog of the invention is determined by blocking with the analog an activity with naturally occurring IL-8.

**Q.** Which results are given for “RCQCIKTYSKPFHPK (cysteine pairing not given here) [Analog 1]”?
**A.** block of Ca signal transduction induced by IL-8 (neutrophils (PMNs)): blocked the Ca signal transduction; EC-50 for blocking edema [1]: ~1 μg/animal

**Q.** “RCQCLQTLQGIHPK (cysteine pairing not given here) [Analog 2, Derived from Alpha Chemokine GRO (MGSA); b140 describes it as IL-8 residues 6 to 16]” was tested. Which “activity compared to analog 1” value (IL-8) did it give?
**A.** slight loss of activity
